Source: ChEMBL document CHEMBL1201862, “PubChem BioAssay data set” (2004)
Active and inactive are the calls of the source.

Columns and labels:
[1] = target: Glyceraldehyde-3-phosphate dehydrogenase (Homo sapiens, UniProt P04406)
[2] = target: T1, Alkaline phosphatase, tissue-nonspecific isozyme (Homo sapiens, UniProt P05186); assay: human TNAP enzyme inhibitors, SAR follow-up, biochemical, luminescent, dose response (AID 1056)
T1 sequence (P05186 whole entry): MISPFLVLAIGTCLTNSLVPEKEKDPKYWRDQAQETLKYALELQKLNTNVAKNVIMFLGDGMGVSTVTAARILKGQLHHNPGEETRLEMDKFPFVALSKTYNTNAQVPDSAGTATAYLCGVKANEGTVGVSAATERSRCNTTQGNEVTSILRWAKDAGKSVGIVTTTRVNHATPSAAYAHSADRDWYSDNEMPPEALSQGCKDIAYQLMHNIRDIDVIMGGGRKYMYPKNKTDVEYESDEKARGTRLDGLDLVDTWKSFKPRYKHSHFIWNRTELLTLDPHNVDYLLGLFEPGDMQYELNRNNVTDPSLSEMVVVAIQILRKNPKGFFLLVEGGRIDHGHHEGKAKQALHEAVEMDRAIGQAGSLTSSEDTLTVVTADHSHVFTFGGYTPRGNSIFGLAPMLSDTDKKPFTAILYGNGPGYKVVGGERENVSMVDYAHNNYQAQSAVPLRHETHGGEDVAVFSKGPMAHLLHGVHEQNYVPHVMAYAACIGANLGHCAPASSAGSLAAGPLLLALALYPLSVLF

Paired box protein Pax-8 = Paired box protein Pax-8 (Homo sapiens, UniProt Q06710); assay: inhibitors of PAX8-driven TPO luciferase reporter, dose response, RMG-I cells, cherry-pick (AID 687027); format: functional, cell-based;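 also: luciferase reporter driven by Pax8 target thyroperoxidase promoter measured by SteadyGlo luminescence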
[3] = intracellular Trypanosoma cruzi inhibitors in host cells – cell-based, plate reader, cherry-pick samples, set 3, dose response (AID 651818); format: functional;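 also: compounds incubated with infected cells for about four days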
[4] = target: T2, Corticotropin-releasing factor receptor 2/Corticotropin-releasing factor-binding protein (Homo sapiens, UniProt P24387+Q13324); assay: activators of CRF receptor 2 with binding protein – uHTS hits, confirmation (AID 602473); format: functional; conditions: read-out: EC50_Mean
T2 sequence (Q13324 whole entry): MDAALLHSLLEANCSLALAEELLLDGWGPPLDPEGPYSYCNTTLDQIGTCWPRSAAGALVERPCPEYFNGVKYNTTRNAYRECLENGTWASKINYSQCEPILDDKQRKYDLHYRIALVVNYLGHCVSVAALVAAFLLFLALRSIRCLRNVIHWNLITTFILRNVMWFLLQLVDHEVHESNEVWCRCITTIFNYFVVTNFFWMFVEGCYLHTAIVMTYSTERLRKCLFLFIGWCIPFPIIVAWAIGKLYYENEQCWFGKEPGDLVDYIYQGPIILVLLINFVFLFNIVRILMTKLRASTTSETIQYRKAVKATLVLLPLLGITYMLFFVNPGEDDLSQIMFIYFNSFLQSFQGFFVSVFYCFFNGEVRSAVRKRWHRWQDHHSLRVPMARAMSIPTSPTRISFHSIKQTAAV
T2 sequence (P24387 whole entry): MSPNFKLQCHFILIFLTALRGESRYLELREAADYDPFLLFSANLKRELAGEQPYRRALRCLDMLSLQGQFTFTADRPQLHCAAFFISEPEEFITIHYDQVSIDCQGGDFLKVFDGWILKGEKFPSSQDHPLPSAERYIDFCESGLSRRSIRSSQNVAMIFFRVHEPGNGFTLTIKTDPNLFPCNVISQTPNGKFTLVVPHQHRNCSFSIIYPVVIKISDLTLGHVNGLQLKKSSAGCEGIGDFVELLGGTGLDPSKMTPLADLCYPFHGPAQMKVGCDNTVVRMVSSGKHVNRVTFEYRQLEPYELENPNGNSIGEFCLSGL

[5] = target: T2, Corticotropin-releasing factor receptor 2/Corticotropin-releasing factor-binding protein; assay: Dose Response confirmation of uHTS hits for small molecule antagonists of the CRF-binding protein and CRF-R2 receptor complex.; format: functional; conditions: read-out: IC50_Mean
[6] = inhibitors of clade B AD8 Env fusion, dose response, cell-based, cherry-pick (AID 652062); format: functional;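 also: luciferase signal from cell-cell fusion driven by HIV-1 clade B AD8 Env; potency is for inhibitors of fusion seen as a drop in luminescence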
[7] = off-target signal loss in HeLa-CEM21 co-culture – HeLa F-luc CTL cells, cherry-picked, counter-screen for HIV-1 Env fusion inhibitor project, dose response (AID 652040); format: functional, cell-based;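 also: potency for signal decrease marking cytotoxic or nonspecific inhibition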
cells [8] = format: functional, cell-based
[9] = control 3'UTR Renilla luciferase suppression, dose response, counter-screen for Shn3 inhibitor project, cell-based, Clone20-Shn3RL, cherry-picked (AID 624133); format: functional
Protein RecA = target: T3, Protein RecA (Mycobacterium tuberculosis, UniProt P9WHJ3); assay: Fluorescence Cell-Free Homogeneous Dose Retest to Identify Inhibitors of RecA-Intein Splicing Activity. [Related pubchem assays (depositor defined):AID2097, AID2223, AID489010, AID492950]; format: functional
T3 sequence (P9WHJ3 whole entry): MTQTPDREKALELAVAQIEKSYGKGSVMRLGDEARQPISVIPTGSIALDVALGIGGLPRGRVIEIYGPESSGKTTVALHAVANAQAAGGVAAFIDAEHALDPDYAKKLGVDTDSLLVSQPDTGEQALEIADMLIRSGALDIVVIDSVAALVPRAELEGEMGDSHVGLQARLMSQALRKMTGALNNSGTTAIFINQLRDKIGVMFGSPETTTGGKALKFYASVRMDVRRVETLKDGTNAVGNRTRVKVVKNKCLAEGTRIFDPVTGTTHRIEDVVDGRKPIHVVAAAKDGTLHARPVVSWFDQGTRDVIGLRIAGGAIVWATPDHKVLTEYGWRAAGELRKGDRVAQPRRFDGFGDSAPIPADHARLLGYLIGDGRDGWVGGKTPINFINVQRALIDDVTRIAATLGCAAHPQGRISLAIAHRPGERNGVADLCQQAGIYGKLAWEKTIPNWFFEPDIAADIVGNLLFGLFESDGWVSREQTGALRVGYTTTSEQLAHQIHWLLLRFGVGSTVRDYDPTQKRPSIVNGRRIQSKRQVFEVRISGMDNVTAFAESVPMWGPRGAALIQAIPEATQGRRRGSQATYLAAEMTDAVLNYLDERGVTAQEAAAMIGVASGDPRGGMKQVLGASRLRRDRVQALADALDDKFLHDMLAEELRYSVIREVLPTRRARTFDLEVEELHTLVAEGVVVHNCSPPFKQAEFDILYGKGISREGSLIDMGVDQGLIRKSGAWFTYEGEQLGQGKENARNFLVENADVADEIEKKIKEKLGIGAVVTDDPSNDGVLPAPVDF

[10] = HepG2 cell cytotoxicity, dose response, cytotoxicity control for Shn3 inhibitor project, CellTiter-Glo, cherry-picked (AID 624134); format: functional, cell-based
cells [11] = format: functional, cell-based; remark: listed apart in the source
[12] = Shn3 3'UTR reporter inhibitors, dose response, cell-based, Clone20 osteoblasts, firefly luciferase, cherry-picked (AID 624132); format: functional;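 also: firefly luciferase luminescence from reporter carrying the Shn3 3'UTR in osteoblasts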
[13] = target: T4, Replicative DNA helicase DnaB (Mycobacterium tuberculosis, UniProt P9WMR3); assay: DnaB intein splicing inhibitors, dose response, biochemical, cell-free fluorescence (AID 449749); format: functional
T4 sequence (P9WMR3 whole entry): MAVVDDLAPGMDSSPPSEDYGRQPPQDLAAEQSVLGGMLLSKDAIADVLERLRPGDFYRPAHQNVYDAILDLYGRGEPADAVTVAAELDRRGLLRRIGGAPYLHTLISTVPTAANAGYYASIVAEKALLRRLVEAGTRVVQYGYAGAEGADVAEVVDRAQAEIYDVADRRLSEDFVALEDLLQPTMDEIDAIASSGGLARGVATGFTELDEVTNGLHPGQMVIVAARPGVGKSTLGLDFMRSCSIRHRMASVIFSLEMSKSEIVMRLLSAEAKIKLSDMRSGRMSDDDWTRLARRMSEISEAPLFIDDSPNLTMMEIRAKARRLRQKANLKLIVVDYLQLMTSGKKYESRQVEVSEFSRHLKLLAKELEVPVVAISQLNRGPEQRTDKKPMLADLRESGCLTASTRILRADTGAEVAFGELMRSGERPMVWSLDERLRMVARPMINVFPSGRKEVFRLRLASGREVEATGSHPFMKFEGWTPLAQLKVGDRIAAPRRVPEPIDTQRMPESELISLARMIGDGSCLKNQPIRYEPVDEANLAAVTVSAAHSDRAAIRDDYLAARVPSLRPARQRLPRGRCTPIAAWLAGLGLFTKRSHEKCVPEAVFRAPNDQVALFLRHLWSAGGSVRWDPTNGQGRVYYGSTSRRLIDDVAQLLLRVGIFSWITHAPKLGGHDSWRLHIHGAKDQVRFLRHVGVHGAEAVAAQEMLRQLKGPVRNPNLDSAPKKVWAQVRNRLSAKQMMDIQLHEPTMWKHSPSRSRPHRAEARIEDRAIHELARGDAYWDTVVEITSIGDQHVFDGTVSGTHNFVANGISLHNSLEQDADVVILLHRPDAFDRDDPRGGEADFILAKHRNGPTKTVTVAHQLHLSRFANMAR

Glyceraldehyde-3-phosphate dehydrogenase, sequence (P04406 whole entry): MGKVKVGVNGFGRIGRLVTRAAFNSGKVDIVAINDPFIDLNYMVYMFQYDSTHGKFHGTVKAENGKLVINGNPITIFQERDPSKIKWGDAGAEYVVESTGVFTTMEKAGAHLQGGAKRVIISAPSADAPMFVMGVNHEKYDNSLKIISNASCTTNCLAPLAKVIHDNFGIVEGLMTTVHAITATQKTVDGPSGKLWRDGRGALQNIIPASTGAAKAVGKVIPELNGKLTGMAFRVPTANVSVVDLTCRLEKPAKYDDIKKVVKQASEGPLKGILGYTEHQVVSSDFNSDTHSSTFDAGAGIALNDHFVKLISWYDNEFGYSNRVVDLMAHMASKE
Paired box protein Pax-8, sequence (Q06710 whole entry): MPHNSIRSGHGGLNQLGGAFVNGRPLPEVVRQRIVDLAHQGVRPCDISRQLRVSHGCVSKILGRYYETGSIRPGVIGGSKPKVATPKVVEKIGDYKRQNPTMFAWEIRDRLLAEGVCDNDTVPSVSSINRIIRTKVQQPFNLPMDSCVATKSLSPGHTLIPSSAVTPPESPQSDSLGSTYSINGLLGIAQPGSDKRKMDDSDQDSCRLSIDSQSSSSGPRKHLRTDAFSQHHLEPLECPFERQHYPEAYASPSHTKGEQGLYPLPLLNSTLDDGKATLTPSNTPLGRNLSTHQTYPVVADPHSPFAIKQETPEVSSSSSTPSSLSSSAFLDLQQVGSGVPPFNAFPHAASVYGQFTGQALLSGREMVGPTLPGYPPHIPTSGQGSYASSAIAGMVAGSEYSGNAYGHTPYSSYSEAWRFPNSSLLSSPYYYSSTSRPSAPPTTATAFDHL

| SMILES | IC50 [1] | IC50 [2] | AC50 [3] | also measured |
| --- | --- | --- | --- | --- |
| O=C(c1[nH]nc2c1COc1ccccc1-2)N1CCCC1 | > 100 µM (not active) | 0.289 µM (active) |  |  |
| O=C(C[C@@H]1CC[C@@H]2[C@H](COC[C@H](O)CN2S(=O)(=O)c2cccc(Cl)c2)O1)Nc1ccc(-c2ccccc2)cc1 |  |  |  | AC50 (Paired box protein Pax-8): 9.87 µM (active) |
| C[C@@H]1CN([C@@H](C)CO)C(=O)c2cccc(NC(=O)c3nc4ccccc4s3)c2O[C@H]1CN(C)Cc1ccc(-c2ccccc2)cc1 |  |  | 3.59 µM (active) |  |
| C[C@@H]1CCCCO[C@@H](CN(C)Cc2ccc(C(F)(F)F)cc2)[C@@H](C)CN([C@H](C)CO)C(=O)c2cc(NC(=O)Nc3ccc(F)cc3)ccc2O1 |  |  | 6.87 µM (active) |  |
| C[C@@H]1CCCCO[C@@H](CN(C)C(=O)NC2CCCCC2)[C@@H](C)CN([C@H](C)CO)C(=O)c2cc(NC(=O)Nc3ccc(C(F)(F)F)cc3)ccc2O1 |  |  | 4.12 µM (active) |  |
| O=C1C(Cl)=C(N2CCN(c3ncccn3)CC2)C(=O)N1c1cccc(C(F)(F)F)c1 | > 50 µM (inconclusive) |  |  |  |
| C[C@@H]1CN([C@H](C)CO)C(=O)Cc2cc(NC(=O)Nc3ccc(F)cc3)ccc2O[C@@H]1CN(C)Cc1ccc(C(=O)Nc2ccccc2N)cc1 |  |  | 2.04 µM (active) |  |
| CCCSc1nnc(NC(C)=O)[nH]1 | > 10 µM (inconclusive) | 0.449 µM (active) |  | EC50 [4]: > 53 µM (inactive); IC50 [5]: > 47.1 µM (inactive) |
| CC(=O)Nc1nnc(SCCc2ccccc2)[nH]1 | > 100 µM (not active) | > 100 µM (inactive) |  |  |
| C[C@@H]1CCCCO[C@H](CN(C)Cc2ccc(C(F)(F)F)cc2)[C@@H](C)CN([C@H](C)CO)C(=O)c2cc(NC(=O)Nc3ccccc3)ccc2O1 |  |  | 4.7 µM (active) |  |
| COc1ccc(S(=O)(=O)Nc2ccc3c(c2)C(=O)N([C@@H](C)CO)C[C@H](C)[C@H](CN(C)Cc2ccc(Oc4ccccc4)cc2)O3)cc1 |  |  | 1.94 µM (active) |  |
| Cc1cccc(S(=O)(=O)N2CC[C@@H]3[C@H](CO)Nc4ccc(C5=CCCCC5)cc4[C@@H]32)c1 |  |  |  | AC50 (Paired box protein Pax-8): 10.9 µM (active) |
| CCCn1c(=S)[nH]c2cc(C(=O)N3CCCC(C(=O)OCC)C3)ccc2c1=O (centres undefined) |  |  |  | AC50 [6]: 23.2 µM (active); AC50 [7]: > 70 µM (inactive) |
| c1cncc(-c2nccs2)c1 | > 100 µM (not active) | > 100 µM (inactive) |  |  |
| COc1ccc(OC)c(S(=O)(=O)Nc2ccc[nH]c2=O)c1 | > 100 µM (not active) | 6.32 µM (active) |  |  |
| C[C@@H]1CCCCO[C@H](CN(C)Cc2ccncc2)[C@H](C)CN([C@@H](C)CO)C(=O)c2cc(NC(=O)Nc3ccc(C(F)(F)F)cc3)ccc2O1 |  |  |  | AC50 (Paired box protein Pax-8): 13.6 µM (active) |
| COc1ccccc1-c1cc(C(F)(F)F)nc(S(=O)(=O)CCCC(=O)N2CCCCC2C)n1 (centres undefined) |  |  |  | EC50 (cells [8]): > 350 µM (not active); AC50 [9]: 8.84 µM (active); EC50 (Protein RecA): 3.11 µM (active); AC50 [10]: 25.7 µM (active); EC50 (cells [11]): > 350 µM (not active); AC50 [12]: 2.65 µM (active); AC50 [13]: 1.97 µM (active) |
| c1cncc(Cn2ccnc2)c1 | > 100 µM (not active) | > 100 µM (inactive) |  |  |
| C[C@H]1CN([C@@H](C)CO)C(=O)c2cc(NC(=O)Nc3cccc4ccccc34)ccc2O[C@H]1CN(C)Cc1ccc(Cl)c(Cl)c1 |  |  | 5.7 µM (active) |  |
